Results: PubChem BioAssay (NCI)
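Values below derive from 48-hour exposures of cells grown in 96-well plates, with endpoints linearly interpolated between the two concentrations bracketing the appropriate inhibition level. TGI: concentration producing complete growth inhibition.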

What was measured:
Assay in all cases: NCI tumour cell line growth inhibition, 48 h
LOX IMVI melanoma = test system: LOX IMVI melanoma
SK-MEL-28 melanoma = test system: SK-MEL-28 melanoma
M14 melanoma = test system: M14 melanoma
SR leukemia = test system: SR leukemia
K-562 leukemia = test system: K-562 leukemia
A498 renal = test system: A498 renal
SNB-19 CNS = test system: SNB-19 CNS
A549 NSCLC = test system: A549 NSCLC
SNB-75 CNS = test system: SNB-75 CNS
RPMI-8226 leukemia = test system: RPMI-8226 leukemia
HCC-2998 colon = test system: HCC-2998 colon
HCT-15 colon = test system: HCT-15 colon
OVCAR-8 ovarian = test system: OVCAR-8 ovarian
IGROV1 ovarian = test system: IGROV1 ovarian
OVCAR-5 ovarian = test system: OVCAR-5 ovarian
EKVX NSCLC = test system: EKVX NSCLC
DU-145 prostate = test system: DU-145 prostate

## CCOC(=O)c1ccc(C(=O)/C(C#N)=C2\CCCN2)[nH]1
LOX IMVI melanoma
  TGI: > 100 µM
SK-MEL-28 melanoma
  TGI: > 100 µM
M14 melanoma
  TGI: > 100 µM
SR leukemia
  TGI: 84.5 µM
K-562 leukemia
  TGI: > 100 µM
A498 renal
  TGI: > 100 µM
SNB-19 CNS
  TGI: > 100 µM
A549 NSCLC
  TGI: > 100 µM
SNB-75 CNS
  TGI: > 100 µM
RPMI-8226 leukemia
  TGI: > 100 µM
HCC-2998 colon
  TGI: > 100 µM
HCT-15 colon
  TGI: > 100 µM
OVCAR-8 ovarian
  TGI: > 100 µM
IGROV1 ovarian
  TGI: > 100 µM
OVCAR-5 ovarian
  TGI: > 100 µM
EKVX NSCLC
  TGI: > 100 µM
DU-145 prostate
  TGI: > 100 µM

## CCOC(=O)c1c(NC(=O)Nc2ccccc2)c(C(N)=O)c2n1CCCCC2
LOX IMVI melanoma
  TGI: > 100 µM
SK-MEL-28 melanoma
  TGI: > 100 µM
M14 melanoma
  TGI: > 100 µM
SR leukemia
  TGI: > 100 µM
K-562 leukemia
  TGI: > 100 µM
A498 renal
  TGI: > 100 µM
SNB-19 CNS
  TGI: > 100 µM
SNB-75 CNS
  TGI: > 100 µM
RPMI-8226 leukemia
  TGI: > 100 µM
HCC-2998 colon
  TGI: > 100 µM
HCT-15 colon
  TGI: > 100 µM
OVCAR-8 ovarian
  TGI: > 100 µM
IGROV1 ovarian
  TGI: > 100 µM
EKVX NSCLC
  TGI: > 100 µM
DU-145 prostate
  TGI: > 100 µM

## C[Si](C)(C)OC1c2[nH]c3ccccc3c2CN2C(=O)CCC12 (stereo not drawn)
LOX IMVI melanoma
  TGI: > 100 µM
SK-MEL-28 melanoma
  TGI: > 100 µM
M14 melanoma
  TGI: > 100 µM
SR leukemia
  TGI: > 100 µM
K-562 leukemia
  TGI: > 100 µM
A498 renal
  TGI: > 100 µM
SNB-19 CNS
  TGI: > 100 µM
A549 NSCLC
  TGI: > 100 µM
SNB-75 CNS
  TGI: > 100 µM
RPMI-8226 leukemia
  TGI: > 100 µM
HCC-2998 colon
  TGI: > 100 µM
HCT-15 colon
  TGI: > 100 µM
OVCAR-8 ovarian
  TGI: > 100 µM
IGROV1 ovarian
  TGI: > 100 µM
OVCAR-5 ovarian
  TGI: > 100 µM
EKVX NSCLC
  TGI: > 100 µM
DU-145 prostate
  TGI: > 100 µM

## CC1(C)C(=O)N=C(N)N1C(=O)OCc1ccccc1
LOX IMVI melanoma
  TGI: > 100 µM
SK-MEL-28 melanoma
  TGI: > 100 µM
M14 melanoma
  TGI: > 100 µM
SR leukemia
  TGI: > 100 µM
K-562 leukemia
  TGI: > 100 µM
A498 renal
  TGI: > 100 µM
SNB-19 CNS
  TGI: > 100 µM
A549 NSCLC
  TGI: > 100 µM
SNB-75 CNS
  TGI: > 100 µM
RPMI-8226 leukemia
  TGI: > 100 µM
HCC-2998 colon
  TGI: > 100 µM
HCT-15 colon
  TGI: > 100 µM
OVCAR-8 ovarian
  TGI: > 100 µM
IGROV1 ovarian
  TGI: > 100 µM
OVCAR-5 ovarian
  TGI: > 100 µM
EKVX NSCLC
  TGI: > 100 µM
DU-145 prostate
  TGI: > 100 µM

## O=[N+]([O-])c1cccc2nccc(NCC(O)CO)c12 (stereo not drawn)
LOX IMVI melanoma
  TGI: 54.7 µM
SK-MEL-28 melanoma
  TGI: 34 µM
M14 melanoma
  TGI: 32.9 µM
SR leukemia
  TGI: 28 µM
K-562 leukemia
  TGI: > 93.3 µM
A498 renal
  TGI: 19.3 µM
A549 NSCLC
  TGI: 36.4 µM
SNB-75 CNS
  TGI: > 63.9 µM
RPMI-8226 leukemia
  TGI: 61.2 µM
HCC-2998 colon
  TGI: 25.8 µM
HCT-15 colon
  TGI: 22.4 µM
OVCAR-8 ovarian
  TGI: 33.2 µM
IGROV1 ovarian
  TGI: 38.9 µM
OVCAR-5 ovarian
  TGI: 42.1 µM
EKVX NSCLC
  TGI: 27.6 µM
DU-145 prostate
  TGI: 75.6 µM

## C=CCOCn1ccc(=O)[nH]c1=O
LOX IMVI melanoma
  TGI: > 100 µM
SK-MEL-28 melanoma
  TGI: > 100 µM
M14 melanoma
  TGI: > 100 µM
SR leukemia
  TGI: > 100 µM
K-562 leukemia
  TGI: > 100 µM
A498 renal
  TGI: > 100 µM
SNB-19 CNS
  TGI: > 100 µM
A549 NSCLC
  TGI: > 100 µM
SNB-75 CNS
  TGI: > 100 µM
RPMI-8226 leukemia
  TGI: > 100 µM
HCC-2998 colon
  TGI: > 100 µM
HCT-15 colon
  TGI: > 100 µM
OVCAR-8 ovarian
  TGI: > 100 µM
IGROV1 ovarian
  TGI: > 100 µM
EKVX NSCLC
  TGI: > 100 µM
DU-145 prostate
  TGI: > 100 µM
